# Test results published in ChEMBL document CHEMBL4613226, “Drug Metabolism by the Mitochondrial Amidoxime Reducing Component (mARC): Rapid Assay and Identification of New Substrates” (J Med Chem, 2020).
# Columns and labels:
# Type in all cases: ADME
# [1] = biological target: T1, Mitochondrial amidoxime-reducing component 1 (Homo sapiens, UniProt Q5VT66); assay: Substrate activity at human mARC1 expressed in Escherichia coli assessed as turnover rates at 3 mM pre-incubated for 3 mins followed by NADH addition and measured after 15 mins by UV-Visible spectroscopy based NADH assay; conditions: 0.25 h, 3000 µM
# T1 sequence (Q5VT66 whole entry): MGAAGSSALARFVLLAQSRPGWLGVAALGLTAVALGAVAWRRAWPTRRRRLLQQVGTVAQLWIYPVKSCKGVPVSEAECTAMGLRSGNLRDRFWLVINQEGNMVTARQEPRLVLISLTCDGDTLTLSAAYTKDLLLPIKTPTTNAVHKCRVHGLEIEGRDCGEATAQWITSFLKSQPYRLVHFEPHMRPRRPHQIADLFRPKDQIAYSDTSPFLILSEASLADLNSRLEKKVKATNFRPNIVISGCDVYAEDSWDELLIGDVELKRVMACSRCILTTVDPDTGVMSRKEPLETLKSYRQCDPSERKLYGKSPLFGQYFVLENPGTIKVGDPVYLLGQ
# [2] = biological target: T2, Mitochondrial amidoxime reducing component 2 (Homo sapiens, UniProt Q969Z3); assay: Substrate activity at human mARC2 expressed in Escherichia coli assessed as turnover rates at 3 mM pre-incubated for 3 mins followed by NADH addition and measured after 15 mins by UV-Visible spectroscopy based NADH assay; conditions: 0.25 h, 3000 µM
# T2 sequence (Q969Z3 whole entry): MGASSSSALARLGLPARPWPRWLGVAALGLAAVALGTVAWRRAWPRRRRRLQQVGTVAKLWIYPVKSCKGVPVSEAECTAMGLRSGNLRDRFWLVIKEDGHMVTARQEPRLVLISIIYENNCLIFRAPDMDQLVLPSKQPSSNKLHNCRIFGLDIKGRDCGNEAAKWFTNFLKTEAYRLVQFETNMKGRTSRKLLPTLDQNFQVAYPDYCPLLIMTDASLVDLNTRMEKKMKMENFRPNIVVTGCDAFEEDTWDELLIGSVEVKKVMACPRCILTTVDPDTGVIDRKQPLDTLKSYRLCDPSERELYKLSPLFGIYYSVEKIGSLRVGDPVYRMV
# [3] = biological target: T1, Mitochondrial amidoxime-reducing component 1; assay: Substrate activity at human mARC1 expressed in Escherichia coli assessed as turnover rates at 1 mM pre-incubated for 3 mins followed by NADH addition and measured after 15 mins by UV-Visible spectroscopy based NADH assay; conditions: 0.25 h, 1000 µM
# [4] = biological target: T2, Mitochondrial amidoxime reducing component 2; assay: Substrate activity at human mARC2 expressed in Escherichia coli assessed as turnover rates at 1 mM pre-incubated for 3 mins followed by NADH addition and measured after 15 mins by UV-Visible spectroscopy based NADH assay; conditions: 0.25 h, 1000 µM
# [5] = biological target: T1, Mitochondrial amidoxime-reducing component 1; assay: Substrate activity at human mARC1 expressed in Escherichia coli assessed as turnover rates at 1 mM pre-incubated for 3 mins followed by NADH addition and measured after 15 mins by LC-MS analysis based assay; conditions: 0.25 h, 1000 µM
# [6] = biological target: T2, Mitochondrial amidoxime reducing component 2; assay: Substrate activity at human mARC2 expressed in Escherichia coli assessed as turnover rates at 1 mM pre-incubated for 3 mins followed by NADH addition and measured after 15 mins by LC-MS analysis based assay; conditions: 0.25 h, 1000 µM
# [7] = biological target: T1, Mitochondrial amidoxime-reducing component 1; assay: Substrate activity at human mARC1 expressed in Escherichia coli assessed as turnover rates at 200 uM pre-incubated for 3 mins followed by NADH addition and measured after 15 mins by UV-Visible spectroscopy based NADH assay; conditions: 0.25 h
# [8] = biological target: T2, Mitochondrial amidoxime reducing component 2; assay: Substrate activity at human mARC2 expressed in Escherichia coli assessed as turnover rates at 200 uM pre-incubated for 3 mins followed by NADH addition and measured after 15 mins by UV-Visible spectroscopy based NADH assay; conditions: 0.25 h
# [9] = biological target: T1, Mitochondrial amidoxime-reducing component 1; assay: Substrate activity at human mARC1 expressed in Escherichia coli assessed as turnover rates at 200 uM pre-incubated for 3 mins followed by NADH addition and measured after 15 mins by LC-MS analysis based assay; conditions: 0.25 h
# [10] = biological target: T2, Mitochondrial amidoxime reducing component 2; assay: Substrate activity at human mARC2 expressed in Escherichia coli assessed as turnover rates at 200 uM pre-incubated for 3 mins followed by NADH addition and measured after 15 mins by LC-MS analysis based assay; conditions: 0.25 h
# [11] = biological target: T1, Mitochondrial amidoxime-reducing component 1; assay: Substrate activity at human mARC1 expressed in Escherichia coli assessed as turnover rates at 500 uM pre-incubated for 3 mins followed by NADH addition and measured after 15 mins by UV-Visible spectroscopy based NADH assay; conditions: 0.25 h
# [12] = biological target: T2, Mitochondrial amidoxime reducing component 2; assay: Substrate activity at human mARC2 expressed in Escherichia coli assessed as turnover rates at 500 uM pre-incubated for 3 mins followed by NADH addition and measured after 15 mins by UV-Visible spectroscopy based NADH assay; conditions: 0.25 h
# [13] = biological target: T1, Mitochondrial amidoxime-reducing component 1; assay: Substrate activity at human mARC1 expressed in Escherichia coli assessed as turnover rates at 500 uM pre-incubated for 3 mins followed by NADH addition and measured after 15 mins by LC-MS analysis based assay; conditions: 0.25 h
# [14] = biological target: T2, Mitochondrial amidoxime reducing component 2; assay: Substrate activity at human mARC2 expressed in Escherichia coli assessed as turnover rates at 500 uM pre-incubated for 3 mins followed by NADH addition and measured after 15 mins by LC-MS analysis based assay; conditions: 0.25 h
# [15] = biological target: T1, Mitochondrial amidoxime-reducing component 1; assay: Substrate activity at human mARC1 expressed in Escherichia coli assessed as turnover rates at 3 mM pre-incubated for 3 mins followed by NADH addition and measured after 15 mins by LC-MS analysis based assay; conditions: 0.25 h, 3000 µM
# [16] = biological target: T2, Mitochondrial amidoxime reducing component 2; assay: Substrate activity at human mARC2 expressed in Escherichia coli assessed as turnover rates at 3 mM pre-incubated for 3 mins followed by NADH addition and measured after 15 mins by LC-MS analysis based assay; conditions: 0.25 h, 3000 µM
smiles,measurement,setting,value
O=CN(O)CCCP(=O)([O-])O.[Na+] [FOSMIDOMYCIN SODIUM],Activity,[1],7.2 nmol/mg/min
same,Activity,[2],27.8 nmol/mg/min
CC(c1cc2ccccc2s1)N(O)C(N)=O (stereo not given) [ZILEUTON],Activity,[3],6.1 nmol/mg/min
same,Activity,[4],8.3 nmol/mg/min
same,Activity,[5],2.3 nmol/mg/min
same,Activity,[6],0.9 nmol/mg/min
O=C1Cc2cc(CCN3CCN(c4nsc5ccccc45)CC3)c(Cl)cc2N1 [ZIPRASIDONE],Activity,[7]; BLD = below limit of detection,Bld
same,Activity,[8]; BLD = below limit of detection,Bld
same,Activity,[9]; BLD = below limit of detection,Bld
same,Activity,[10]; BLD = below limit of detection,Bld
OC[C@H]1O[C@@H](n2cnc3c(NO)ncnc32)[C@H](O)[C@@H]1O,Activity,[3],845.7 nmol/mg/min
same,Activity,[4],271.6 nmol/mg/min
same,Activity,[5],954.5 nmol/mg/min
same,Activity,[6],291 nmol/mg/min
Cc1oncc1C(=O)Nc1ccc(C(F)(F)F)cc1 [LEFLUNOMIDE],Activity,[11]; BLD = below limit of detection,Bld
same,Activity,[12]; BLD = below limit of detection,Bld
same,Activity,[13]; BLD = below limit of detection,Bld
same,Activity,[14]; BLD = below limit of detection,Bld
NC(=O)NO [HYDROXYUREA],Activity,[1],471.5 nmol/mg/min
same,Activity,[2],34.4 nmol/mg/min
N=C(NO)N/N=C/c1c(Cl)cccc1Cl [GUANOXABENZ],Activity,[11],951.2 nmol/mg/min
same,Activity,[12],947.1 nmol/mg/min
same,Activity,[13],988 nmol/mg/min
same,Activity,[14],967.5 nmol/mg/min
CN(CCCC(=O)c1cccnc1)N=O,Activity,[1]; BLD = below limit of detection,Bld
same,Activity,[2]; BLD = below limit of detection,Bld
same,Activity,[15]; BLD = below limit of detection,Bld
same,Activity,[16]; BLD = below limit of detection,Bld
C=C1C(=O)O[C@@H]2CC[N+]3([O-])CC=C(COC(=O)[C@](C)(O)[C@H](C)[C@H]1C)[C@H]23 (stereo not given in full),Activity,[3],12.7 nmol/mg/min
same,Activity,[4]; BLD = below limit of detection,Bld
same,Activity,[5],17.6 nmol/mg/min
same,Activity,[6]; BLD = below limit of detection,Bld
C[N+](C)([O-])CCC=C1c2ccccc2CCc2ccccc21 [AMITRIPTYLINOXIDE],Activity,[1],9.5 nmol/mg/min
same,Activity,[2]; BLD = below limit of detection,Bld
same,Activity,[15],3.1 nmol/mg/min
same,Activity,[16]; BLD = below limit of detection,Bld
O=c1nc(NO)ccn1[C@@H]1O[C@H](CO)[C@@H](O)[C@H]1O [N-HYDROXYCYTIDINE],Activity,[1],354.7 nmol/mg/min
same,Activity,[2],142.1 nmol/mg/min
same,Activity,[15],354.8 nmol/mg/min
same,Activity,[16],184.2 nmol/mg/min
NC(=NO)c1ccccc1 [BENZAMIDOXIME],Activity,[1],499.8 nmol/mg/min
same,Activity,[2],394.3 nmol/mg/min
same,Activity,[15],549.6 nmol/mg/min
same,Activity,[16],373.9 nmol/mg/min
NS(=O)(=O)NCCNc1nonc1C(=NO)Nc1ccc(F)c(Br)c1 [EPACADOSTAT],Activity,[7],10.4 nmol/mg/min
same,Activity,[8],24.3 nmol/mg/min
same,Activity,[9],4.1 nmol/mg/min
same,Activity,[10],17.9 nmol/mg/min
NC(=O)c1ccc[n+]([O-])c1,Activity,[1],209.9 nmol/mg/min
same,Activity,[2]; BLD = below limit of detection,Bld
same,Activity,[15],239.3 nmol/mg/min
same,Activity,[16]; BLD = below limit of detection,Bld
NS(=O)(=O)Cc1noc2ccccc12 [ZONISAMIDE],Activity,[3]; BLD = below limit of detection,Bld
same,Activity,[4]; BLD = below limit of detection,Bld
same,Activity,[5]; BLD = below limit of detection,Bld
same,Activity,[6]; BLD = below limit of detection,Bld
Cc1cn([C@H]2C[C@H](N=[N+]=[N-])[C@@H](CO)O2)c(=O)[nH]c1=O [ZIDOVUDINE],Activity,[1]; BLD = below limit of detection,Bld
same,Activity,[2]; BLD = below limit of detection,Bld
same,Activity,[15]; BLD = below limit of detection,Bld
same,Activity,[16]; BLD = below limit of detection,Bld
